We go through two substances from US7553929B2, “Cell permeable peptides for inhibition of inflammatory reactions and methods of use” (Vanderbilt University, priority 1994, dated 2009).

Test [1] deals with rodent endothelial cell line (LE-II). Put plainly: Indirect immunofluorescence assay of peptide import, LE-II cells. In kind it is cell-based.
The subject of test [2] is baby hamster kidney-21 cells. The test is described as follows: Indirect immunofluorescence assay of SM peptide import, baby hamster kidney-21 cells. The format is cell-based.
In test [3] the test system is NIH 3T3 cells. The test is described as follows: Indirect immunofluorescence assay of peptide import into NIH 3T3 cells. The format is cell-based. From the text: A 26-residue peptide (referred to as SM, listed herein as SEQ ID NO:1) that contained the predicted signal sequence of Kaposi fibroblast growth factor ^16-17 (K-FGF) was chemically synthesized. An indirect immunofluorescence assay using antibody against epitope tag-containing SM peptide was employed to follow translocation of the SM peptide to the intracellular compartments of NIH 3T3 cells. A polyclonal anti-SM peptide antibody against the SM peptide-keyhole limpet haemocyanin conjugate (Pierce) was raised in rabbits and reacted with SM peptide in ELISA (titer>1:30,000). The intracellular SM peptide was detected by an indirect imrnmunofluorescence assay using affinity-purified anti-SM peptide IgG and rhodamine-labeled anti-rabbit antibody (Kirkegaard & Perry). Briefly, confluent NIH 373 cells on the chamber slides (Nunc) were treated with either 0.5 ml SM peptide solution (100 μg ml^−1) in DMEM containing 10% FBS or with 0.5 ml DMEM containing 10% FBS only for 30 minutes at 37° C. The cells were fixed with 3.5% paraformaldehyde solution in PBS followed by 0.25% Triton X-100 in PBS and then treated with 1:20 anti-SM peptide IgG in PBS containing 0.5% bovine serum albumin (BSA) for 1.5 h. The intracellular SM peptide-antibody complexes were visualized by subsequent incubation with a rhodamine-labeled anti-rabbit polyclonal antibody for 1 h. In control systems, anti-SM peptide antibody was preabsorbed with the SM peptide. Intracellular localization of the SAα peptide was detected by immunofluorescence assay using affinity-purified anti-SM peptide IgG as described above for SM peptide. […] A ten-step z-position sectional scanning of the SM peptide-treated cells by the confocal laser scanning microscopy (CLSM) affirmed that these deposits were intracellular. […] Likewise, cells not exposed to SM peptide or cells exposed to SM peptide followed by the secondary antibody alone were negative. If cells were fixed with paraformaldehyde before peptide treatment, the cellular import of SM peptide was prevented.
To determine the rate of SM peptide import across cell membranes, a kinetic experiment was carried out with the SM peptide-treated NIH 3T3 cells. NIH 3T3 cells were treated at 37° C. with 0.5 ml SM peptide at 100 μg mL^−1 in DMEM containing 10% FBS for 1, 5, 15, 30, 60 and 120 minutes. Intracellular SM peptide deposits were detected by indirect immunofluorescence assay as described above. […] The 30-minute time point was therefore selected to determine the optimal peptide concentrations for detectable import.
To determine the optimal peptide concentration, NIH 3T3 cells were treated for 30 minutes at 37° C. with 0.5 ml SM peptide solution in DMEM containing 10% FBS at the following concentrations: 0, 2, 10, 50, 100, and 150 μg ml^−1. Intracellular localization of the SM peptide was detected by indirect immunofluorescence assay as described above. […] The cellular import was concentration-dependent and reached a plateau between 50 μg/ml and 100 μg/ml.
Transport of the SM peptide across the cell membrane was temperature-dependent. […] Accordingly, cellular import of the SM peptide resumed when the incubation temperature shifted from 4° C. to 37° C.
The intracellular SA peptide could not be tracked by an immunofluorescence assay because it was not recognized by the available anti-SM peptide antibody. However, attaching two extra amino acid residues (Met-Pro) to the carboxyl terminus of the SA peptide produced a modified SA peptide (referred to as SAα, listed herein as SEQ ID NO:4) that contained a 3-amino acid epitope tag, Leu-Met-Pro, recognized by anti-SM peptide antibody in ELISA. […] Like SA peptide, SAα peptide was mitogenic in the thymidine incorporation assay.

In test [4] the test system is NIH 3T3 cells. Put plainly: [3H]thymidine incorporation (mitogenic response) of NIH 3T3 cells. The format is cell-based. The method, then:
A 26-residue hybrid peptide (referred to as SA, listed herein as SEQ ID NO:3) was designed and synthesized. […] Thus, the SA peptide differs from the SM peptide only in its 7-residue carboxyl terminal “cargo” region. A functional assay was performed in which SA peptide was able to induce a mitogenic response of NIH 3T3 cells measured by [^3H]thymidine incorporation in a manner similar to aFGF bearing, the same NLS. ^18
In this functional assay, confluent 3T3 cells grown initially in DMEM containing 10% FBS were transferred to a low serum medium (DMEM containing 0.5% FBS) for 2 days. The test peptides, either SA peptide, SAα pep-tide, ANL peptide, or SM peptide, or aFGF, were added to a fresh low serum medium at the indicated concentrations at 37° C. After 16 hours, [^3H]thymidine was added and 4 hours later, the cells were washed with PBS, treated with trichloroacetic acid, solubilized with 0.15 M NaOH, and the radioactivity was determined in a liquid scintillation counter.
Bars represent the mean±S.E.M. of at least three independent experiments done in triplicate and calculated as multiplicity of counts in the tested sample over the control sample. SA peptide within the concentration range used (0 to 46 μM) was not cytotoxic as determined by staining with fluorescein diacetate/ethidium bromide. ^20
For orientation: Uptake of a labelled nucleoside into DNA is a usual measure of proliferation.

The subject of test [5] is human umbilical vein endothelial cells. The test is described as follows: Indirect immunofluorescence assay of SM peptide import, HUVEC. In kind it is cell-based.
Test [6] deals with NIH 3T3 cells. Put plainly: DNA synthesis by flow cytometric analysis in serum-starved NIH 3T3 cells. The format is cell-based. The following applies: 15 ng ml^−1, 20 h. The method, then: To further confirm the mitogenic activity of the SA peptide, its effect on DNA synthesis was examined. Serum-starved NIH 3T3 cells were treated with SA peptide, fixed, and the DNA concentration was determined by standard flow cytometric analysis. Specifically, confluent NIH 3T3 cells (1.3×10^6 cells) were serum-starved in DMEM containing 0.5% FBS for 2 days. The cells were untreated (control) or treated with SA peptide or aFGF for 20 h, harvested, spun down, and washed with serum-free PBS, three times. The cells were fixed with methanol precooled to −20° C. for DNA analysis carried out by the Flow Cytometry Research Service of Vanderbilt University. The data were the mean ±S.E.M. of six measurements and were analyzed for statistical significance by analysis of variance.
For orientation: Flow cytometry measures light scatter and fluorescence of single cells or particles in a stream.

For test [7], the system named is NIH 3T3 cells. The following applies: aFGF binding to FGF receptors on NIH 3T3 cells; cited from earlier work.

Turning to “SM peptide: 26-residue peptide: K-FGF signal sequence, spacer, epitope tag; mutated, loss-of-function NLS; cell-permeable control (AAVALLPAVLLALLAPAAADQNQLMP; 1..16 Note/label = a (“Signal peptide amino acid sequence of K-FGF”))”, in test [1], the “Intracellular localization by indirect immunofluorescence” value (“Intracellular localization” for short) is “the same results as with NIH 3T3 cells”. Besides, the “Intracellular localization” value in test [2] is on record as “the same results as with NIH 3T3 cells”. Moreover, in test [3] (100 μg/mL, 37° C.), the “Time at which intracellular staining plateaued” value is given as “about 30 minutes” and the “Time at which intracellular staining was first observed” value is ≤ 5 min. Also, in test [3] (100 μg/ml, 30 minutes, 4° C.), the “Immunofluorescence staining at 4° C.” value is given as “No immunofluorescence staining was observed”. Besides, the “Immunofluorescence staining at 22° C. or 37° C.” value in test [3] (100 μg/ml, 30 minutes, 22° C. or 37° C.) is on record as “numerous punctate deposits”. Moreover, the “Intracellular peptide deposits by indirect immunofluorescence” value in test [3] (100 μg/ml, 30 minutes, 37° C.) is on record as “intracellular deposits were observed in almost all cells”. For the same substance, in test [3] (30 minutes, 37° C.), the “Concentration giving detectable intracellular peptide” value came out at 2 µg/mL and the “Concentration giving detectable intracellular peptide (molar)” value is reported as “about 800 nM”. In test [3] (cells fixed before treatment), the “Cellular import in cells fixed with paraformaldehyde before peptide treatment” value is recorded as “prevented”. Also, in test [4] (comparable concentration ranges), the “Mitogenic activity in thymidine incorporation assay” value is “Neither control peptide showed any significant mitogenic activity”. The “Intracellular localization” value in test [5] is “the same results as with NIH 3T3 cells”.

Take aFGF: acidic fibroblast growth factor: the “Diploid % S Phase” value in test [6] is 27.8 ± 2.3 (P < 0.05) %. Moreover, the “Tyrosine phosphorylation of intracellular proteins” value in test [7] was “induces the tyrosine phosphorylation”. Also, the “Stimulation of [3H]thymidine incorporation over control” value in test [4] (serum-starved NIH 3T3 cells, 16 h + 4 h) was ~8 fold.
